Each block holds one molecule with its values, some of them ahead of it.
Columns and labels:
mTORC1 [1] = target: T1, mTORC1 (Homo sapiens, UniProt P42345+Q8N122+Q9BVC4); experiment: Inhibition of mTORC1 in human MDA-MB-468 cells assessed as measuring phosphorylated P70S6K incubated for 2 to 4 hrs by AlphaLISA assay; assay type: cell-based
mTORC1 [2] = target: T1, mTORC1; experiment: Inhibition of mTORC1 in human MDA-MB-468 cells assessed as measuring phosphorylated 4EBP1 incubated for 2 to 4 hrs by AlphaLISA assay; assay type: cell-based
mTORC2 [3] = target: T2, mTORC2 (Homo sapiens, UniProt P42345+Q6R327+Q9BPZ7+Q9BVC4); experiment: Inhibition of mTORC2 in human MDA-MB-468 cells assessed as measuring phosphorylated AKT incubated for 2 to 4 hrs by AlphaLISA assay; assay type: cell-based
[4] = target: T3, Phosphatidylinositol 4,5-bisphosphate 3-kinase catalytic subunit delta isoform (Homo sapiens, UniProt O00329); experiment: Inhibition of human PI3Kdelta preincubated for 15 mins followed by ATP addition measured after 1 hr by TR-FRET assay
T3 sequence (O00329 whole entry): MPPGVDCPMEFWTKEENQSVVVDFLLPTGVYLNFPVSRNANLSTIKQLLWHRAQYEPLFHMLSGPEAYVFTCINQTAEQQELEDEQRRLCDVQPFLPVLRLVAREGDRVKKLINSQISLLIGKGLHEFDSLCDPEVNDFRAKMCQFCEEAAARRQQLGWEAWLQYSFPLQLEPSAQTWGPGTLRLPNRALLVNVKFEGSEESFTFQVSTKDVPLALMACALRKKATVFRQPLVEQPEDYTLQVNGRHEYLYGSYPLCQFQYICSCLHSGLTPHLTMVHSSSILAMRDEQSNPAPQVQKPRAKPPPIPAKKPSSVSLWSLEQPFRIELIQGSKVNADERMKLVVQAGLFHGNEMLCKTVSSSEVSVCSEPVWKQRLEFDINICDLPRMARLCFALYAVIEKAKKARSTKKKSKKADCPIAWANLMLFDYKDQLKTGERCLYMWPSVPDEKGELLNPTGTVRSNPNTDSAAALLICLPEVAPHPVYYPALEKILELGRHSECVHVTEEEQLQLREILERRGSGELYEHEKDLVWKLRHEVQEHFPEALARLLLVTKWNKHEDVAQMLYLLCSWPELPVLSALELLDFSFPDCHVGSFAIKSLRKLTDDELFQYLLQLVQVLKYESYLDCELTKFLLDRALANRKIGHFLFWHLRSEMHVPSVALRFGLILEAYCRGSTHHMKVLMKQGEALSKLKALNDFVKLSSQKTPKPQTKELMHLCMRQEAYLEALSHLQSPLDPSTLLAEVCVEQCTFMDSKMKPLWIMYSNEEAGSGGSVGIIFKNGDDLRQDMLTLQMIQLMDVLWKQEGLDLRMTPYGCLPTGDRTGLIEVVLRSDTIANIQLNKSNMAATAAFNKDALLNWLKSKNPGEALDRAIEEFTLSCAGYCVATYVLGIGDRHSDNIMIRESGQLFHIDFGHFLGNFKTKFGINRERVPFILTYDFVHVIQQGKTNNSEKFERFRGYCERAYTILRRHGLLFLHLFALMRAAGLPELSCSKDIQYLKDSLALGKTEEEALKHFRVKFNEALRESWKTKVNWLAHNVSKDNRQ

mTORC1 [5] = target: T1, mTORC1; experiment: Inhibition of mTORC1 (unknown origin); assay type: protein-complex assay
[6] = Inhibition of mTORC1 in mouse MEF TSC1-/- cells assessed as measuring phosphorylated S6 level incubated for 2 hrs by Hoechst staining based fluorescence assay; assay type: cell-based
mTORC2 [7] = target: T2, mTORC2; experiment: Inhibition of mTORC2 in human MCF7 cells assessed as measuring phosphorylated AKT incubated for 2 hrs by AlphaLISA assay; assay type: cell-based
mTORC1 [8] = target: T1, mTORC1; experiment: Inhibition of mTORC1 in human MCF7 cells assessed as measuring phosphorylated S6K1 incubated for 2 hrs by AlphaLISA assay; assay type: cell-based

T2 sequence (Q6R327 whole entry, other chains not shown, canonical isoform): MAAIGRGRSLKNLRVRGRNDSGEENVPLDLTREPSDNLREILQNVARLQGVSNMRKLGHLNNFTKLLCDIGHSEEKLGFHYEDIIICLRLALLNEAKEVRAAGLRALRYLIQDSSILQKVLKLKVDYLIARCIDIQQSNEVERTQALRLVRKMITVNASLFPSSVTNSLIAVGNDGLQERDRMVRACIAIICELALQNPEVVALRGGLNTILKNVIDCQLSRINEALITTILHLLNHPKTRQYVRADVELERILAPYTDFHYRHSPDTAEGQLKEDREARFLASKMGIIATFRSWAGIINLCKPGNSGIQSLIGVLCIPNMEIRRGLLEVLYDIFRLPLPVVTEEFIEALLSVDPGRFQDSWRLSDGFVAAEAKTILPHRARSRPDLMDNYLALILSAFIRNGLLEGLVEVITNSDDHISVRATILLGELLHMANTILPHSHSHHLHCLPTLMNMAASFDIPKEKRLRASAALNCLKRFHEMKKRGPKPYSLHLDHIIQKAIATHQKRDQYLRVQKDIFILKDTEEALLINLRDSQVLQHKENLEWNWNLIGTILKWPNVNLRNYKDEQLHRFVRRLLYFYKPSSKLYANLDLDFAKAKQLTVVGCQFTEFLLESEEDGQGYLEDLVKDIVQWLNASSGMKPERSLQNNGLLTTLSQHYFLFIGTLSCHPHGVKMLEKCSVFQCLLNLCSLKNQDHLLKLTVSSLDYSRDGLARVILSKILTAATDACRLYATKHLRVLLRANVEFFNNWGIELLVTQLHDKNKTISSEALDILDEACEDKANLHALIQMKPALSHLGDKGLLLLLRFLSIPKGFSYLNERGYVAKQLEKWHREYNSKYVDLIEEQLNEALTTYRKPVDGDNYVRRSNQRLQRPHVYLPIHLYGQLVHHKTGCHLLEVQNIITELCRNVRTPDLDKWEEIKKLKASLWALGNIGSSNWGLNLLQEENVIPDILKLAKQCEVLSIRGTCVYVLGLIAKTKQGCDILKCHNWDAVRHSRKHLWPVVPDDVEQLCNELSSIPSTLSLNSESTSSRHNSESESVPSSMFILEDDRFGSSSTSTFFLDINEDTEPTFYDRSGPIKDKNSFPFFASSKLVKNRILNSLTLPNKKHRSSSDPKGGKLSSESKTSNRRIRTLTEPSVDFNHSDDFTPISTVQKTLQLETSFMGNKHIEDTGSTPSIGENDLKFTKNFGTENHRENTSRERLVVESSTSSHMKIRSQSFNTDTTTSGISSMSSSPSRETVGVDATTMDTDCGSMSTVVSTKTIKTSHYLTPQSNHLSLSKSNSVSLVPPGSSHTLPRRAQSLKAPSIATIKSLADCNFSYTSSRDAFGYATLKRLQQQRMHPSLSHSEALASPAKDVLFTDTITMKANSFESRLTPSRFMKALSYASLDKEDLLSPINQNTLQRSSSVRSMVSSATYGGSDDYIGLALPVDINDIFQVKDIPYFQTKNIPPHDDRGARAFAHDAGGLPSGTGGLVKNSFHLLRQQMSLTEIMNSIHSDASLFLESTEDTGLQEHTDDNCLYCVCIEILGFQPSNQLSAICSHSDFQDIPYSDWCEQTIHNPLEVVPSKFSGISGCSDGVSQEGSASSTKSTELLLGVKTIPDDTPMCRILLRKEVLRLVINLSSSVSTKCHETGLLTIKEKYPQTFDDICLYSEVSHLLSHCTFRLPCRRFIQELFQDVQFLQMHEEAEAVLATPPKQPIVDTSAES
T2 sequence (Q9BPZ7 2-522 limits assumed, other chains not shown): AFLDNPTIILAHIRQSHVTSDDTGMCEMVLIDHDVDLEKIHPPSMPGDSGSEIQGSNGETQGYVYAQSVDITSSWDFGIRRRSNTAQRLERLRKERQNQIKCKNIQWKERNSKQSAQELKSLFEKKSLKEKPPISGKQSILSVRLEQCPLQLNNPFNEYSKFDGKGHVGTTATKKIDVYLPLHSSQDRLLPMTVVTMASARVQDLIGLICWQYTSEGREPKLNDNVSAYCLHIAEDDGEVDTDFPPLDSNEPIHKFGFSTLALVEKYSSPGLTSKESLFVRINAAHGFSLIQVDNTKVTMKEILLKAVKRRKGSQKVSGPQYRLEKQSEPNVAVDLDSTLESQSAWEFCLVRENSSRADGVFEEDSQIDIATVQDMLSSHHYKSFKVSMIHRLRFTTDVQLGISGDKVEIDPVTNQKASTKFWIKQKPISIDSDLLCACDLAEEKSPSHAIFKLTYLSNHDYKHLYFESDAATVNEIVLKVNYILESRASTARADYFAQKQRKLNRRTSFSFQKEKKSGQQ
T2 sequence (Q9BVC4 whole entry, other chains not shown, canonical isoform): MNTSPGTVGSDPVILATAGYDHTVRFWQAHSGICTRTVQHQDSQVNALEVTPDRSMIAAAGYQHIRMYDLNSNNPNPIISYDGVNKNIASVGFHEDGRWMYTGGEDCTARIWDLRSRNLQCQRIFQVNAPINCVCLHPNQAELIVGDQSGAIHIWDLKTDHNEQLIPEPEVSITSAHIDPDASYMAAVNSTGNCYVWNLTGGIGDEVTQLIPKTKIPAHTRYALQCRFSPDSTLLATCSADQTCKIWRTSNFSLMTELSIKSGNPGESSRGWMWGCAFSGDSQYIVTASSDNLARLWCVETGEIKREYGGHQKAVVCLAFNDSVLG

Compound: Nc1ncnc2c1c(-c1cc3cccc(O)c3[nH]1)nn2C1CCOCC1
IC50 [4]: 100 nM
IC50 (mTORC1 [5]): < 5 nM

Compound: Nc1ncnc2c1c(-c1cc3cc(O)ccc3[nH]1)nn2C1CCOCC1
IC50 [4]: 50 nM
IC50 (mTORC1 [5]): < 5 nM

Compound: Cc1cc(C)c(C(=O)N2CCN(c3ccccc3)C(C(N)=O)C2)c(C)c1NC1CCN(c2ccc(F)cc2C#N)CC1 (centres undefined)
IC50 (mTORC2 [7]): > 10000 nM
IC50 (mTORC1 [8]): 10 nM

Compound: Cc1cc(C)c(C(=O)N2CCN(c3ncccc3F)[C@H](CO)C2)cc1NC1CCN(c2ccccc2C#N)CC1
IC50 (mTORC2 [7]): > 10000 nM
IC50 (mTORC1 [8]): 10 nM

Compound: Cc1cc(C)c(C(=O)N2CCN(c3ncccc3S(N)(=O)=O)CC2)nc1NC1CCN(c2ccccc2C#N)CC1
IC50 (mTORC2 [7]): > 10000 nM
IC50 (mTORC1 [8]): 10 nM

Compound: Cc1c(CN2CCN(c3ccccc3C#N)CC2)cc(C(=O)N2CCN(c3oc(C4CC4)nc3C#N)CC2)n1C
IC50 (mTORC2 [7]): > 10000 nM
IC50 (mTORC1 [8]): 10 nM

Compound: CC(=O)N1CCC(n2nc(-c3cc4c(Cl)ccc(O)c4[nH]3)c3c(N)ncnc32)CC1
IC50 [4]: 100 nM
IC50 (mTORC1 [5]): < 5 nM

Compound: Cc1c(CN2CCN(c3ccccc3Cl)CC2)cc(C(=O)N2CCN(c3cccc(F)c3C#N)C[C@@H]2C)n1C
IC50 (mTORC2 [7]): > 10000 nM
IC50 (mTORC1 [8]): 10 nM

Compound: Cc1cc(C)c(C(=O)N2CCN(c3cncc4cn[nH]c34)CC2)nc1NC1CCN(c2ccccc2C#N)CC1
IC50 (mTORC2 [7]): > 10000 nM
IC50 (mTORC1 [8]): 10 nM

Compound: Cn1c(C(=O)N2CCN(c3ccccc3)CC2)cc(CN2CCN(c3ccccc3Cl)CC2)c1C#N
IC50 (mTORC2 [7]): > 10000 nM
IC50 (mTORC1 [8]): 10 nM

Compound: Cc1c(CN2CCN(c3ncccc3Cl)CC2)cc(C(=O)N2CCN(c3cc(F)c(F)cc3C#N)CC2)n1C
IC50 (mTORC2 [7]): > 10000 nM
IC50 (mTORC1 [8]): 10 nM

Compound: Cc1c(CN2C3CCC2CN(c2ccccc2C#N)C3)cc(C(=O)N2CCN(c3ccccn3)CC2)n1C
IC50 (mTORC2 [7]): > 10000 nM
IC50 (mTORC1 [8]): 10 nM

Results, then the molecule that gave them:

IC50 (mTORC1 [1]): ≤ 1 nM
IC50 (mTORC1 [2]): ≤ 3.16 nM
IC50 (mTORC2 [3]): > 31.6 nM
Compound: CO[C@H]1C[C@@H]2CC[C@@H](C)[C@@](O)(O2)C(=O)C(=O)N2CCCC[C@H]2C(=O)O[C@H]([C@H](C)C[C@@H]2CC[C@@H](OCCCCc3cn(CCOCCOCCOCCOCCOCCOCCC(=O)NCCCCn4nc(-c5cccc(C(=O)NC6=NCCS6)c5)c5c(N)ncnc54)nn3)[C@H](OC)C2)CC(=O)[C@H](C)/C=C(\C)[C@@H](O)[C@@H](OC)C(=O)[C@H](C)C[C@H](C)C\C=C/C=C/C=C/1C

IC50 (mTORC1 [1]): ≤ 1 nM
IC50 (mTORC1 [2]): ≤ 3.16 nM
IC50 (mTORC2 [3]): > 31.6 nM
Compound: COc1cccc2cc(-c3nc([C@H]4CC[C@H](C(=O)NCCOCCOCCNC(=O)CCOCCOCCOCCOCCn5cc(CCCCO[C@@H]6CC[C@@H](C[C@@H](C)[C@@H]7C[C@@H](OC)[C@H](C)/C=C(\C)[C@@H](O)[C@@H](OC)C(=O)[C@H](C)C[C@H](C)C\C=C/C=C/C=C(\C)[C@@H](OC)C[C@@H]8CC[C@@H](C)[C@@](O)(O8)C(=O)C(=O)N8CCCC[C@H]8C(=O)O7)C[C@H]6OC)nn5)CC4)n4ncnc(N)c34)[nH]c12

IC50 (mTORC1 [1]): ≤ 1 nM
IC50 (mTORC1 [2]): ≤ 3.16 nM
IC50 (mTORC2 [3]): > 31.6 nM
Compound: COc1cccc2cc(-c3nc([C@H]4CC[C@H](C(=O)NCCOCCOCCNC(=O)CCOCCOCCOCCOCCn5cc(CCCCO[C@@H]6CC[C@@H](C[C@@H](C)[C@@H]7CC(=O)[C@H](C)/C=C(\C)[C@@H](O)[C@@H](OC)C(=O)[C@H](C)C[C@H](C)C\C=C/C=C/C=C(\C)[C@@H](OC)C[C@@H]8CC[C@@H](C)[C@@](O)(O8)C(=O)C(=O)N8CCCC[C@H]8C(=O)O7)C[C@H]6OC)nn5)CC4)n4ncnc(N)c34)[nH]c12

IC50 (mTORC1 [1]): ≤ 1 nM
IC50 (mTORC1 [2]): ≤ 3.16 nM
IC50 (mTORC2 [3]): 1000 nM
Compound: CO[C@H]1C[C@@H]2CC[C@@H](C)[C@@](O)(O2)C(=O)C(=O)N2CCCC[C@H]2C(=O)O[C@H]([C@H](C)C[C@@H]2CC[C@@H](OCCCN3CCOC(C)(C)C3)[C@H](OC)C2)C[C@@H](O)[C@H](C)/C=C(\C)[C@@H](O)[C@@H](OC)C(NOCC(=O)NCCOCCOCCOCCOCCOCCOCCC(=O)N2CCC(n3nc(-c4ccc5oc(N)nc5c4)c4c(N)ncnc43)CC2)[C@H](C)C[C@H](C)C\C=C/C=C/C=C/1C (some centres undefined)

IC50 (mTORC1 [1]): ≤ 1 nM
IC50 (mTORC1 [2]): ≤ 3.16 nM
IC50 (mTORC2 [3]): 1000 nM
Compound: CO[C@H]1C[C@@H]2CC[C@@H](C)[C@@](O)(O2)C(=O)C(=O)N2CCCC[C@H]2C(=O)O[C@H]([C@H](C)C[C@@H]2CC[C@@H](OCCCN3CCOC(C)(C)C3)[C@H](OC)C2)C[C@@H](O)[C@H](C)/C=C(\C)[C@@H](O)[C@@H](OC)C(NOCC(=O)NCCOCCOCCOCCOCCOCCOCCC(=O)N2CCc3cc(Cn4nc(-c5ccc6oc(N)nc6c5)c5c(N)ncnc54)ccc3C2)[C@H](C)C[C@H](C)C\C=C/C=C/C=C/1C (some centres undefined)

IC50 ([6]; mef): 8.3 nM
Compound: CO[C@@H]1C[C@H](C[C@@H](C)[C@@H]2CC(=O)[C@H](C)/C=C(\C)[C@@H](O)[C@@H](OC)C(=O)[C@H](C)C[C@H](C)/C=C/C=C/C=C(\C)C(N3CCCS3(=O)=O)C[C@@H]3CC[C@@H](C)[C@@](O)(O3)C(=O)C(=O)N3CCCC[C@H]3C(=O)O2)CC[C@H]1OCCO (stereo in doubt; 13)

IC50 ([6]; Mus musculus, MEF, 2 h): 0.374 nM
Compound: CO[C@@H]1C[C@H](C[C@@H](C)[C@@H]2CC(=O)[C@H](C)/C=C(\C)[C@@H](O)[C@@H](OC)C(=O)[C@H](C)C[C@H](C)/C=C/C=C/C=C(\C)C(N3CCS3(=O)=O)C[C@@H]3CC[C@@H](C)[C@@](O)(O3)C(=O)C(=O)N3CCCC[C@H]3C(=O)O2)CC[C@@H]1n1cnnn1 (some centres undefined)

IC50 ([6]; Mus musculus, MEF, 2 h): 3.4 nM
Compound: CO[C@@H]1C[C@H](C[C@@H](C)[C@@H]2CC(=O)[C@H](C)/C=C(\C)[C@@H](O)[C@@H](OC)C(=O)[C@H](C)C[C@H](C)/C=C/C=C/C=C(\C)C(N3CCCCS3(=O)=O)C[C@@H]3CC[C@@H](C)[C@@](O)(O3)C(=O)C(=O)N3CCCC[C@H]3C(=O)O2)CC[C@H]1O (some centres undefined)

IC50 ([6]; mef): 22.5 nM
Compound: CO[C@@H]1C[C@H](C[C@@H](C)[C@@H]2CC(=O)[C@H](C)/C=C(\C)[C@@H](O)[C@@H](OC)C(=O)[C@H](C)C[C@H](C)/C=C/C=C/C=C(\C)C(N3CCCS3(=O)=O)C[C@@H]3CC[C@@H](C)[C@@](O)(O3)C(=O)C(=O)N3CCCC[C@H]3C(=O)O2)CC[C@H]1OCCO (stereo in doubt; 12)

IC50 ([6]; Mus musculus, MEF, 2 h): 0.274 nM
Compound: CO[C@@H]1C[C@H](C[C@@H](C)[C@@H]2CC(=O)[C@H](C)/C=C(\C)[C@@H](O)[C@@H](OC)C(=O)[C@H](C)C[C@H](C)/C=C/C=C/C=C(\C)[C@H](N3CCCS3(=O)=O)C[C@@H]3CC[C@@H](C)[C@@](O)(O3)C(=O)C(=O)N3CCCC[C@H]3C(=O)O2)CC[C@H]1O

IC50 ([6]; Mus musculus, MEF, 2 h): 1.36 nM
Compound: CO[C@@H]1C[C@H](C[C@@H](C)[C@@H]2CC(=O)[C@H](C)/C=C(\C)[C@@H](O)[C@@H](OC)C(=O)[C@H](C)C[C@H](C)/C=C/C=C/C=C(\C)C(N3CCCS3(=O)=O)C[C@@H]3CC[C@@H](C)[C@@](O)(O3)C(=O)C(=O)N3CCCC[C@H]3C(=O)O2)CC[C@H]1O (some centres undefined)

IC50 ([6]; Mus musculus, MEF, 2 h): 0.17 nM
Compound: CO[C@@H]1C[C@H](C[C@@H](C)[C@@H]2CC(=O)[C@H](C)/C=C(\C)[C@@H](O)[C@@H](OC)C(=O)[C@H](C)C[C@H](C)/C=C/C=C/C=C(\C)C(N3CCS3(=O)=O)C[C@@H]3CC[C@@H](C)[C@@](O)(O3)C(=O)C(=O)N3CCCC[C@H]3C(=O)O2)CC[C@H]1O (some centres undefined)

IC50 (mTORC2 [7]): > 10000 nM
IC50 (mTORC1 [8]): 10 nM
Compound: Cc1cc(C)c(C(=O)N2CCN(c3ccc(F)cn3)[C@H](CO)C2)c(C)c1NC1CCN(c2cccnn2)CC1

IC50 ([6]; Mus musculus, MEF, 2 h): 0.328 nM
Compound: CO[C@@H]1C[C@H](C[C@@H](C)[C@@H]2CC(=O)[C@H](C)/C=C(\C)[C@@H](O)[C@@H](OC)C(=O)[C@H](C)C[C@H](C)/C=C/C=C/C=C(\C)C(N3CCS3(=O)=O)C[C@@H]3CC[C@@H](C)[C@@](O)(O3)C(=O)C(=O)N3CCCC[C@H]3C(=O)O2)CC[C@H]1OCCO (some centres undefined)
